Measurements: PMC10573752, “New Benzamides as Multi-Targeted Compounds: A Study on Synthesis, AChE and BACE1 Inhibitory Activity and Molecular Docking” (International Journal of Molecular Sciences, 2023)
Where two headings read alike, the source gives them in different places.

Tests used:
BACE-1 = conditions: cited from earlier work
human AChE = conditions: cited from earlier work
BACE1 [1] = target: T1, BACE1 (Homo sapiens, UniProt P56817); experiment: In vitro β-secretase (BACE1) activity assay kit (fluorescence); assay type: biochemical, equine
T1 construct: purchased Sigma-Aldrich CS0010

[2] = target: T2, AChE from Electrophorus electricus (electric eel) (Electrophorus electricus, UniProt O42275); experiment: biochemical; conditions: mean ± SD of three independent experiments
T2 construct: purchased Sigma-Aldrich C3389

BuChE = conditions: cited from earlier work
AChE = conditions: cited from earlier work
BACE1 [3] = conditions: cited from earlier work
hBuChE = target: hBuChE; design: method as in PMID 23041347; conditions: cited from earlier work

T1 sequence (P56817 46-457 limits assumed): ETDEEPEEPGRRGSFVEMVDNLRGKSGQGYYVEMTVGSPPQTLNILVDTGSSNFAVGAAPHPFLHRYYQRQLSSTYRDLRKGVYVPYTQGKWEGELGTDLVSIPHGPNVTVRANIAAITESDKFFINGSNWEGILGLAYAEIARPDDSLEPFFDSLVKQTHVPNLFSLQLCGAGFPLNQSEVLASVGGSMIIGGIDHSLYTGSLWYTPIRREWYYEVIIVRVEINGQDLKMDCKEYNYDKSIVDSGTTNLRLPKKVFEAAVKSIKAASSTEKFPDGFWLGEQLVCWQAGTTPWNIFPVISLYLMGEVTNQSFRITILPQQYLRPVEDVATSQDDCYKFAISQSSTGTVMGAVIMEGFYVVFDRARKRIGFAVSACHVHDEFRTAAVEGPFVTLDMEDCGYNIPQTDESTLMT
T2 sequence (O42275 24-633): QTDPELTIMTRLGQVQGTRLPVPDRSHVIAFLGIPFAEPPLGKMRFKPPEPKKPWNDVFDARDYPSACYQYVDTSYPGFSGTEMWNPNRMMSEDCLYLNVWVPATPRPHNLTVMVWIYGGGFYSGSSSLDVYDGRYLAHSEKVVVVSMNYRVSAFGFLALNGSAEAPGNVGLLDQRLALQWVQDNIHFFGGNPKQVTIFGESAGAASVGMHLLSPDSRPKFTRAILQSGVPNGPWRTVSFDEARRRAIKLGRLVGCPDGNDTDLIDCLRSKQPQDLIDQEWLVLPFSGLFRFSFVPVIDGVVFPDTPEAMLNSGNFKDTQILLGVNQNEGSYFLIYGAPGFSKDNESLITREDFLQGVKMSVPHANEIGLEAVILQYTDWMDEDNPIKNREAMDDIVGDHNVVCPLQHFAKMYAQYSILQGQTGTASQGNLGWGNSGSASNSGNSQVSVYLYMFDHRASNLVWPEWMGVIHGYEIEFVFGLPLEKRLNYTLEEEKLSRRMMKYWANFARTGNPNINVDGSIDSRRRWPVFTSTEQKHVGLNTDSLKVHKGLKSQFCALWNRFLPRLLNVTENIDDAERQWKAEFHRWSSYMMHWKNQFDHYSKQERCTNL

For `O=C(NCCCCCCCCCCNc1c2c(nc3ccccc13)CCCC2)c1cc(=O)c2cc(O)ccc2o1` [Molecule VIII], the IC50 (BACE-1; read-out: IC50 for BACE-1) is listed as 2800 nM and the IC50 (human AChE; human AChE, read-out: IC50 for AChE) is listed as 8 nM.

`COc1cc(OC)cc(C(=O)Nc2ccc(NC(=O)c3cc(OC)cc(OC)c3)cc2)c1` [JW6, N,N′-(1,4-phenylene)bis(3,5-dimethoxybenzamide)] gave an IC50 (BACE1 [1]) of 16700 ± 250 nM and an IC50 [2] of 190 ± 33 nM.

For `CCN(CC)Cc1ccccc1CNC(=O)c1cccc(CC(=O)c2ccc(F)cc2)c1` [III], the IC50 (BuChE; read-out: BChE IC50) is given as 0.08 nM.

In the case of `CCN(CC)Cc1ccccc1CNC(=O)c1cc(C)cc(CC(=O)c2ccc(F)cc2)c1` [IV], the IC50 (BuChE; read-out: BChE IC50) is listed as 0.039 nM.

In the case of `COc1ccc(CNC(=O)C2CCN(C(=O)c3ccccc3)CC2)cc1OC` [compound X], the IC50 (BACE-1; in humans, read-out: BACE-1 IC50) is given as 18.3 nM and the IC50 (human AChE; in humans, read-out: AChE IC50) is given as 4.11 nM.

Work on `COc1cc(OC)cc(C(=O)Nc2cccc(NC(=O)c3cc(OC)cc(OC)c3)c2)c1` [JW2, N,N′-(1,3-phenylene)bis(3,5-dimethoxybenzamide)] yielded an IC50 (BACE1 [1]) of 74000 ± 1610 nM and an IC50 [2] of 2570 ± 63 nM.

Compound `COc1cccc(C(=O)Nc2ccc(NC(=O)c3cccc(OC)c3)cc2)c1` [JW8, N,N′-(1,4-phenylene)bis(3-methoxybenzamide)] has an IC50 (BACE1 [1]) of 9010 ± 280 nM and an IC50 [2] of 56 ± 43 nM.

For `COc1cc(NC(=O)c2cc(OC)c(OC)c(OC)c2)cc(OC)c1OC` [MB3, 3,4,5-trimethoxy-N-(3,4,5-trimethoxyphenyl)benzamide], the IC50 (BACE1 [1]) was 20200 ± 5130 nM and the IC50 [2] was 110 ± 78 nM.

Compound `COc1cccc(C(=O)Nc2cccc(NC(=O)c3cccc(OC)c3)c2)c1` [JW4, N,N′-(1,3-phenylene)bis(3-methoxybenzamide)] has an IC50 (BACE1 [1]) of 81400 ± 4110 nM and an IC50 [2] of 1200 ± 13 nM.

Work on `COc1cc(C(=O)Nc2ccc(NC(=O)c3cc(OC)c(OC)c(OC)c3)cc2)cc(OC)c1OC` [JW5, N,N′-(1,4-phenylene)bis(3,4,5-trimethoxybenzamide)] yielded an IC50 (BACE1 [1]) of 9290 ± 3020 nM and an IC50 [2] of 68 ± 58 nM.

In the case of `COc1ccc(C(=O)Nc2ccc(NC(=O)c3ccc(OC)c(OC)c3)cc2)cc1OC` [JW7, N,N′-(1,4-phenylene)bis(3,4-dimethoxybenzamide)], the IC50 (BACE1 [1]) is reported as 12800 ± 230 nM and the IC50 [2] is reported as 70 ± 3 nM.

In the case of `CN(C)CCOc1ccc(NC(=O)c2ccccn2)cc1` [Compound V], the IC50 (AChE; read-out: AChE inhibitory activity IC50) is given as 2490 ± 190 nM.

For `OC(CNCc1cccc(COc2ccccc2)c1)Cn1cc(Br)c2cc(Br)ccc21` (centres unmarked) [compound IX], the IC50 (BACE1 [3]; read-out: BACE-1 IC50) is given as 2500 nM and the IC50 (AChE; read-out: AChE IC50) is given as 9100 nM.

In the case of `O=C(NCc1cc(Cl)cc(Cl)c1)c1cc(Br)ccc1O` [compound VI], the IC50 (AChE; read-out: inhibitory potency of AChE activity) is listed as 33100 ± 470 nM.

`COc1cc(CNC(=O)c2cc(OC)c(OC)c(OC)c2)cc(OC)c1OC` [MB4, 3,4,5-trimethoxy-N-(3,4,5-trimethoxybenzyl)benzamide] showed an IC50 (BACE1 [1]) of 87700 ± 6220 nM and an IC50 [2] of 1170 ± 15 nM.

For `COc1ccc(C(=O)Nc2nc(CN(C)Cc3ccccc3)cs2)cc1` [substance II], the IC50 (BuChE; read-out: BuChE IC50) is given as 11400 nM and the IC50 (AChE; read-out: AChE IC50) is given as 1470 nM.

For `COc1cc(C(=O)Nc2cccc(NC(=O)c3cc(OC)c(OC)c(OC)c3)c2)cc(OC)c1OC` [JW1, N,N′-(1,3-phenylene)bis(3,4,5-trimethoxybenzamide)], the IC50 (BACE1 [1]) was 54400 ± 1300 nM and the IC50 [2] was 770 ± 18 nM.

In the case of `CC(=O)c1ccccc1NC(=O)c1ccc(OCCCCC[n+]2ccccc2)cc1` [compound XI], the Ki (human AChE; read-out: hAChE Ki) is given as 81 nM, the IC50 (BACE1 [3]) is given as 310 nM and the Ki (hBuChE) is given as 93 nM.

`COc1cc(C(=O)Nc2cccc([N+](=O)[O-])c2)cc(OC)c1OC` [MB1, 3,4,5-trimethoxy-N-(3-nitrophenyl)benzamide] gave an IC50 (BACE1 [1]) of 40500 ± 2200 nM and an IC50 [2] of 670 ± 8 nM.

In the case of `C[C@@H](NC(=O)c1cccc(C(=O)N[C@@H](c2ccccc2)[C@H](O)CNCCC2CCN(Cc3ccccc3)CC2)c1)c1ccccc1` [Derivative VII], the IC50 (BACE1 [3]) is given as 570 nM and the IC50 (AChE; read-out: AChE IC50) is given as 1830 nM.

Work on `COc1ccc(C(=O)Nc2cccc(NC(=O)c3ccc(OC)c(OC)c3)c2)cc1OC` [JW3, N,N′-(1,3-phenylene)bis(3,4-dimethoxybenzamide)] yielded an IC50 (BACE1 [1]) of 40200 ± 8120 nM and an IC50 [2] of 410 ± 28 nM.

In the case of `COc1ccc(C(=O)N(Cc2ccc(Cl)cc2)c2cccc(Br)c2)cc1OC` [compound I], the IC50 (BuChE; read-out: BuChE IC50) is given as 2850 nM and the IC50 (AChE; read-out: AChE IC50) is given as 1570 nM.
